Molecular target: T1, ALK (baculovirus expressed human ALK kinase domain F1098-K1410) (Homo sapiens, UniProt Q9UM73)
T1 construct: human ALK kinase domain F1098-K1410; made in house
Assay: biochemical
Conditions: 1 μM ATP, 4 μM poly-AEKY, 12 nM ALK, 2 hours at ambient temperature; read-out: ALK IC50
Method in brief: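 Inhibitors were tested at 10 concentrations, and IC50 was derived from a sigmoidal fit (Min, Max, Hill slope). Kinase activity was measured as percent ATP left after a 2 h reaction at room temperature, detected by luciferase-luciferin chemiluminescence. The ATP level was set close to KM for the ALK kinase domain F1098-K1410.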

T1 sequence (Q9UM73 1098-1410): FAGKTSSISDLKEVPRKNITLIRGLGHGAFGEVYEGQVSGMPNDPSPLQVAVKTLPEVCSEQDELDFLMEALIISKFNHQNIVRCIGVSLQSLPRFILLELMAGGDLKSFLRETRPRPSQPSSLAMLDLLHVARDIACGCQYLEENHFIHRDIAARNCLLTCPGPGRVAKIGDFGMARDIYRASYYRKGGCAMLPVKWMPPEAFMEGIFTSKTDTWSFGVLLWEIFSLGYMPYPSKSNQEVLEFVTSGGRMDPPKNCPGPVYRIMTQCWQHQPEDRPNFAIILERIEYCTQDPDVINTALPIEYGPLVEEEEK

IC50	SMILES
50 to 500 nM	Cc1ccc(CNC(=O)c2csc(CNC(=O)COc3ccc(OC(F)(F)F)cc3)n2)cc1 [Entry 170, N-[(4-methylphenyl)methyl]-2-({[({4-[(trifluoromethyl)oxy]phenyl}oxy)acetyl]amino}methyl)-1,3-thiazole-4-carboxamide]
50 to 500 nM	CCC(CC)NC(=O)c1csc(CNC(=O)COc2ccc(OC(F)(F)F)cc2)n1 [Entry 171, N-(1-ethylpropyl)-2-({[({4-[(trifluoromethyl)oxy]phenyl}oxy)acetyl]amino}methyl)-1,3-thiazole-4-carboxamide]
50 to 500 nM	O=C(COc1ccc(OC(F)(F)F)cc1)NCc1nc(C(=O)NCC2CCCCC2)cs1 [Entry 172, N-(cyclohexylmethyl)-2-({[({4-[(trifluoromethyl)oxy]phenyl}oxy)acetyl]amino}methyl)-1,3-thiazole-4-carboxamide]
50 to 500 nM	CC(C)(C)CCNC(=O)c1csc(CNC(=O)COc2ccc(OC(F)(F)F)cc2)n1 [Entry 175, N-(3,3-dimethylbutyl)-2-({[({4-[(trifluoromethyl)oxy]phenyl}oxy)acetyl]amino}methyl)-1,3-thiazole-4-carboxamide]
50 to 500 nM	CCCCNC(=O)c1csc(CNC(=O)COc2ccc(OC(F)(F)F)cc2)n1 [Entry 177, N-butyl-2-({[({4-[(trifluoromethyl)oxy]phenyl}oxy)acetyl]amino}methyl)-1,3-thiazole-4-carboxamide]
50 to 500 nM	COc1ccc(CNC(=O)c2csc(CNC(=O)COc3ccc(OC(F)(F)F)cc3)n2)cc1 [Entry 178, N-{[4-(methyloxy)phenyl]methyl}-2-({[({4-[(trifluoromethyl)oxy]phenyl}oxy)acetyl]amino}methyl)-1,3-thiazole-4-carboxamide]
50 to 500 nM	CCCCCC(C)NC(=O)c1csc(CNC(=O)COc2ccc(OC(F)(F)F)cc2)n1 (stereo not drawn) [Entry 179, N-(1-methylhexyl)-2-({[({4-[(trifluoromethyl)oxy]phenyl}oxy)acetyl]amino}methyl)-1,3-thiazole-4-carboxamide]
50 to 500 nM	C#CC1(NC(=O)c2csc(CNC(=O)COc3ccc(OC(F)(F)F)cc3)n2)CCCCC1 [Entry 180, N-(1-ethynylcyclohexyl)-2-({[({4-[(trifluoromethyl)oxy]phenyl}oxy)acetyl]amino}methyl)-1,3-thiazole-4-carboxamide]
50 to 500 nM	O=C(COc1ccc(OC(F)(F)F)cc1)NCc1nc(C(=O)NC2CCc3ccccc32)cs1 (stereo not drawn) [Entry 182, N-(2,3-dihydro-1H-inden-1-yl)-2-({[({4-[(trifluoromethyl)oxy]phenyl}oxy)acetyl]amino}methyl)-1,3-thiazole-4-carboxamide]
50 to 500 nM	O=C(COc1ccc(OC(F)(F)F)cc1)NCc1nc(C(=O)NCc2ccccn2)cs1 [Entry 190, N-(pyridin-2-ylmethyl)-2-({[({4-[(trifluoromethyl)oxy]phenyl}oxy)acetyl]amino}methyl)-1,3-thiazole-4-carboxamide]
50 to 500 nM	O=C(COc1ccc(OC(F)(F)F)cc1)NCc1nc(C(=O)NCc2ccc(F)c(Cl)c2)cs1 [Entry 191, N-[(3-chloro-4-fluorophenyl)methyl]-2-({[({4-[(trifluoromethyl)oxy]phenyl}oxy)acetyl]amino}methyl)-1,3-thiazole-4-carboxamide]

The next lines start with the molecule.

SMILES	IC50
Cc1ccc(NC(=O)NCc2nc(C(=O)NCCc3cccc(Cl)c3)cs2)cc1 [Entry 168, N-[2-(3-chlorophenyl)ethyl]-2-[({[(4-methylphenyl)amino]carbonyl}amino)methyl]-1,3-thiazole-4-carboxamide]	50 to 500 nM
O=C(Cc1ccc2ccccc2c1)NCc1nc(C(=O)NCCc2ccccc2F)cs1 [Entry 169, N-[2-(2-fluorophenyl)ethyl]-2-{[(naphthalen-2-ylacetyl)amino]methyl}-1,3-thiazole-4-carboxamide]	50 to 500 nM
CSc1ccc(NC(=O)NCc2nc(C(=O)NCCc3cccc(Cl)c3)cs2)cc1 [Entry 173, N-[2-(3-chlorophenyl)ethyl]-2-{[({[4-(methylthio)phenyl]amino}carbonyl)amino]methyl}-1,3-thiazole-4-carboxamide]	50 to 500 nM
O=C(COc1ccc(OC(F)(F)F)cc1)NCc1nc(C(=O)NCc2ccc(F)c(C(F)(F)F)c2)cs1 [Entry 174, N-{[4-fluoro-3-(trifluoromethyl)phenyl]methyl}-2-({[({4-[(trifluoromethyl)oxy]phenyl}oxy)acetyl]amino}methyl)-1,3-thiazole-4-carboxamide]	50 to 500 nM
O=C(COc1ccc(OC(F)(F)F)cc1)NCc1nc(C(=O)NCCC2=CCCCC2)co1 [Entry 176, N-(2-cyclohex-1-en-1-ylethyl)-2-({[({4-[(trifluoromethyl)oxy]phenyl}oxy)acetyl]amino}methyl)-1,3-oxazole-4-carboxamide]	50 to 500 nM
O=C(COc1ccc(OC(F)(F)F)cc1)NCc1nc(C(=O)NCCc2cccc(C(F)(F)F)c2)co1 [Entry 181, 2-({[({4-[(trifluoromethyl)oxy]phenyl}oxy)acetyl]amino}methyl)-N-{2-[3-(trifluoromethyl)phenyl]ethyl}-1,3-oxazole-4-carboxamide]	50 to 500 nM
COc1ccc([C@H](C)NC(=O)c2csc(CNC(=O)COc3ccc(OC(F)(F)F)cc3)n2)cc1 [Entry 183, N-{(1S)-1-[4-(methyloxy)phenyl]ethyl}-2-({[({4-[(trifluoromethyl)oxy]phenyl}oxy)acetyl]amino}methyl)-1,3-thiazole-4-carboxamide]	50 to 500 nM
CCOc1ccc(NC(=O)NCc2nc(C(=O)NCCc3cccc(Cl)c3)cs2)cc1 [Entry 184, N-[2-(3-chlorophenyl)ethyl]-2-{[({[4-(ethyloxy)phenyl]amino}carbonyl)amino]methyl}-1,3-thiazole-4-carboxamide]	50 to 500 nM
O=C(COc1ccc(OC(F)(F)F)cc1)NCc1nc(C(=O)NCc2ccc(F)c(F)c2)cs1 [Entry 185, N-[(3,4-difluorophenyl)methyl]-2-({[({4-[(trifluoromethyl)oxy]phenyl}oxy)acetyl]amino}methyl)-1,3-thiazole-4-carboxamide]	50 to 500 nM
CSc1ccccc1CNC(=O)c1coc(CNC(=O)COc2ccc(OC(F)(F)F)cc2)n1 [Entry 186, N-{[2-(methylthio)phenyl]methyl}-2-({[({4-[(trifluoromethyl)oxy]phenyl}oxy)acetyl]amino}methyl)-1,3-oxazole-4-carboxamide]	50 to 500 nM
COc1ccc(CNC(=O)c2csc(CNC(=O)COc3ccc(OC(F)(F)F)cc3)n2)cc1OC [Entry 187, N-{[3,4-bis(methyloxy)phenyl]methyl}-2-({[({4-[(trifluoromethyl)oxy]phenyl}oxy)acetyl]amino}methyl)-1,3-thiazole-4-carboxamide]	50 to 500 nM
NC(=O)[C@H](Cc1ccccc1)NC(=O)c1csc(CNC(=O)COc2ccc(OC(F)(F)F)cc2)n1 [Entry 188, Nalpha-{[2-({[({4-[(trifluoromethyl)oxy]phenyl}oxy)acetyl]amino}methyl)-1,3-thiazol-4-yl]carbonyl}-L-phenylalaninamide]	50 to 500 nM
CC(C)CCCCCCNC(=O)c1csc(CNC(=O)COc2ccc(OC(F)(F)F)cc2)n1 [Entry 189, N-(7-methyloctyl)-2-({[({4-[(trifluoromethyl)oxy]phenyl}oxy)acetyl]amino}methyl)-1,3-thiazole-4-carboxamide]	50 to 500 nM
